Results reported in PMC6301270 (MedChemComm, 2018).
Entries after “also recorded” stand apart in the source; their conditions may differ. Read-outs that look alike come from different tables or passages of the source.

Experiments:
[1] = tested on: T.b. brucei (strain 427) bloodstream form parasites; experiment: T.b. brucei single concentration screen (10 μM); settings: for viability at 10 µM: Trypanosoma brucei, read-out: T.b.brucei % viability (10 µM); for T.b.brucei % viability (10 µM): single concentration 10 µM, % parasite viability relative to non-treated parasites
[2] = tested on: T.b. brucei (strain 427) bloodstream form parasites; experiment: Trypanosoma brucei assay, dose–response (this study); format: cell-based; settings: for IC50: Trypanosoma brucei; for Selectivity index: calculated as IC50(HeLa)/IC50(T.bb)
HeLa cells = experiment: HeLa cell assay (cytotoxicity); format: cell-based; settings: Homo sapiens, HeLa cells, 48 hours, resazurin, read-out: HeLa IC50
Experimental: HeLa cells were cultured in DMEM medium supplemented with 10% fetal bovine serum and antibiotics (penicillin/streptomycin/amphotericin B) at 37 °C in a 5% CO2 incubator. On the day prior to compound addition, cells were plated in 96-well plates at 2 × 10^4 cells per well. Compounds were added to the cells in 3-fold serial dilutions and incubation at 37 °C in a 5% CO2 incubator continued for 48 hours. Twenty μl resazurin reagent (0.5 mM resazurin in phosphate-buffered saline) was added to each well and, after a 2-hour incubation, fluorescence (Exc560/Em590) was measured in a plate reader. Percentage cell viability in drug-treated wells was calculated from the fluorescent readings obtained relative to those in wells containing control, untreated cells. Plots of % cell viability vs. log[compound] were used to determine IC50 values by non-linear regression analysis using GraphPad Prism.

T.b. brucei = tested on: T.b. brucei; parameters: method as in https://www.pathogenbox.org/; settings: Table 1, kinetoplastid category; ref https://www.pathogenbox.org/; read-out: T. brucei brucei IC50 (μM) Pathogen Box; cited from earlier work
[3] = Table 1, kinetoplastid category, 48 hours at 37 °C, resazurin, read-out: T. brucei brucei IC50 (μM) This study
[4] = Table 2, remaining Pathogen Box, 48 hours at 37 °C, resazurin, read-out: T. brucei brucei IC50 (μM) This study
[5] = pIC50 values (M), read-out: pIC50 (T.b. brucei), this study (converted)

Compound	viability at 10 µM [1]	IC50 [2, 4]	IC50 (HeLa cells; Table 2)	Selectivity index [2]	other results
CC1CCCCN1C(=O)NCCc1coc(-c2ccc(F)cc2)n1 (stereo not drawn) [Compound 5, CC1CCCCN1C(=O)NCCc2coc(n2)c3ccc(F)cc3]	2.2%				IC50 [2, 3]: 0.05 µM; IC50 (HeLa cells; Table 1): > 25 µM
N=C(N)c1ccc(-c2cc(-c3ccccc3)on2)cc1 [Compound 26, NC(=N)c1ccc(cc1)c2cc(on2)c3ccccc3]	14%				T.b.brucei % viability (10 µM) [1]: did not sufficiently reduce cell viability; IC50 (T.b. brucei): 4.06 µM
CCN(CC)S(=O)(=O)c1ccc(C(=O)Nc2cc(C)nn2-c2nc(C)c(C)c(=O)[nH]2)cc1 [Compound 27, CC1=C(C)C(NC(N2N=C(C)C=C2NC(C3=CC=C(S(=O)(N(CC)CC)=O)C=C3)=O)=N1)=O]	58%				T.b.brucei % viability (10 µM) [1]: did not sufficiently reduce cell viability; IC50 (T.b. brucei): 5.3 µM
c1ccc(-c2nc(NC3CCCCC3)cc(C3CC3)n2)nc1 [Compound 35, C1CCC(CC1)Nc2cc(nc(n2)c3ccccn3)C4CC4]	2%	0.83 µM	> 25 µM		T.b. brucei inhibition in words, this study [2]: sub-micromolar range; also recorded: activity in the nanomolar range; IC50 [2, 5]: < 1 µM
Cc1ccc2[nH]c(C3CCCNC3)c(-c3ccncc3)c2c1 (stereo not drawn) [Compound 36, Cc1ccc2[nH]c(C3CCCNC3)c(c4ccncc4)c2c1]	1%	2.2 µM	8.9 µM	4.0	
CCOC(=O)c1c(NC(=O)c2c(F)c(F)c(F)c(F)c2F)sc(C(N)=O)c1C [Compound 37, CCOC(=O)c1c(C)c(sc1NC(=O)c2c(F)c(F)c(F)c(F)c2F)C(=O)N]	7%	11 µM	> 25 µM	> 2.2	
COC(=O)c1c(NC(=O)c2c(F)c(F)c(F)c(F)c2F)sc2c1CCCCC2 [Compound 38, COC(=O)c1c2CCCCCc2sc1NC(=O)c3c(F)c(F)c(F)c(F)c3F]	7%	11 µM	> 25 µM	> 2.2	
O=C(Nc1nc(-c2ccccn2)cs1)c1cncn1-c1ccccc1 [Compound 41, O=C(Nc1nc(cs1)c2ccccn2)c3cncn3c4ccccc4]	1%	1.1 µM	5.1 µM	4.6	
CC(C)=CCC/C(C)=C\CNCCNC1C2CC3CC(C2)CC1C3 (stereo not drawn) [Compound 42, CC(=CCC\C(=C/CNCCNC1C2CC3CC(CC1C3)C2)\C)C]	2%	2.3 µM	15 µM	6.5	
COc1cccc(-c2nc3c(N4CCCC4)cccc3n2CC2CCCN2)n1 (stereo not drawn) [Compound 44, COc1cccc(n1)c2nc3c(cccc3n2CC4CCCN4)N5CCCC5]	4%	4.2 µM	22 µM	5.2	
Cc1cnc(N2CCN[C@@H](Cc3ccccc3)C2)nc1Oc1ccc(-n2ccnc2)cc1 [Compound 45, Cc1cnc(nc1Oc2ccc(cc2)n3ccnc3)N4CCN[C@@H](Cc5ccccc5)C4]	10%	5.1 µM	> 25 µM	> 4.9	
COc1ccc2nccc(NC(=O)C3CCN(CCc4ccc(Cl)cc4)CC3)c2n1 [Compound 47, COc1ccc2nccc(NC(=O)C3CCN(CCc4ccc(Cl)cc4)CC3)c2n1]	7%	29 µM	> 25 µM		
COc1ccc(OC)c(NCc2ccc3nc(N)nc(N)c3c2Cl)c1 [Compound 48, COc1ccc(OC)c(NCc2ccc3nc(N)nc(N)c3c2Cl)c1]	12%	1.2 µM	> 25 µM	> 21	
Cc1cc(C2=NOC(c3cc(Cl)c(F)c(Cl)c3)(C(F)(F)F)C2)ccc1C(=O)NCc1ccc2c(c1)C(C)(C)OB2O (stereo not drawn) [Compound 49, Cc1cc(ccc1C(=O)NCc2ccc3B(O)OC(C)(C)c3c2)C4=NOC(C4)(c5cc(Cl)c(F)c(Cl)c5)C(F)(F)F]	1%	1.2 µM	10 µM	8.3	
CC(C)n1nc(-c2cc3c(Cl)cccc3[nH]2)c2c(N)ncnc21 [Compound 50, CC(C)n1nc(-c2cc3c(Cl)cccc3[nH]2)c2c(N)ncnc12]	4%	4.3 µM	> 25 µM	> 5.8	
CN(C)c1cc(NC(=O)Nc2ccccc2)c2ccccc2n1 [Compound 52, CN(C)c1cc(NC(=O)Nc2ccccc2)c3ccccc3n1]	1%	4.7 µM	> 25 µM	> 5.3	
Cc1ccc2c(c1C)NC(=O)C21NN=C(c2ccccc2)S1 (stereo not drawn) [Compound 54, Cc1ccc2c(NC(=O)C23NN=C(S3)c4ccccc4)c1C]	3%	1 µM	6.6 µM	6.6	T.b. brucei inhibition in words, this study [2]: sub-micromolar range; IC50 [2, 5]: < 1 µM
CC(C)C(C(=O)Nc1ccc(S(=O)(=O)N(C)C)cc1)c1ccc(Cl)cc1 (stereo not drawn) [Compound 55, CC(C)C(C(=O)Nc1ccc(cc1)S(=O)(=O)N(C)C)c2ccc(Cl)cc2]	8%	6.5 µM	12 µM	1.8	

Compound	viability at 10 µM [1]	IC50 [2, 4]	IC50 (HeLa cells; Table 2)	Selectivity index [2]	other results
CN1CCC(NCc2cccc(-c3ccc(S(=O)(=O)NCc4ccccc4)cc3)c2)CC1 [Compound 56, CN1CCC(CC1)NCc2cccc(c2)c3ccc(cc3)S(=O)(=O)NCc4ccccc4]	2%	0.22 µM	13 µM		T.b. brucei inhibition in words, this study [2]: sub-micromolar range; also recorded: activity in the nanomolar range; IC50 [2, 5]: < 1 µM
Nc1nccc2ccc(-c3ccc4nccn4c3)cc12 [Compound 57, Nc1nccc2ccc(cc12)c3ccc4nccn4c3]	3%	1.2 µM	5.4 µM	4.5	
OCCc1ccc(Nc2nccc(-c3nnc4ccccn34)n2)cc1 [Compound 58, OCCc1ccc(Nc2nccc(n2)c3nnc4ccccn34)cc1]	11%	1.5 µM	> 25 µM	> 17	
CCCn1c(NC(=O)c2ccc3ccccc3n2)nc2ccccc21 [Compound 59, CCCn1c(NC(=O)c2ccc3ccccc3n2)nc4ccccc14]	2%	7.1 µM	> 25 µM	> 3.5	
Oc1c(I)cc(I)c2cccnc12 [Compound 60, Oc1c(I)cc(I)c2cccnc12]	1%	2 µM	> 25 µM	> 13	
CS(=O)(=O)c1ccc(C(=O)N(CC2CCCO2)c2nc3ccccc3s2)cc1[N+](=O)[O-] (stereo not drawn) [Compound 61, CS(=O)(=O)c1ccc(cc1[N+](=O)[O-])C(=O)N(CC2CCCO2)c3nc4ccccc4s3]	0%	11 µM	> 25 µM	> 2.3	
CC[C@H]1CN2CCc3cc(OC)c(OC)cc3[C@@H]2C[C@@H]1C[C@H]1NCCc2cc(OC)c(OC)cc21 [Emetine, reference compound]					IC50 (HeLa cells; Table 1): 0.4 µM
CNc1cc(C)nc(C2CN(C(=O)c3n[nH]c4ccccc34)CCO2)c1 (stereo not drawn) [MMV689709, O=C(N1CC(C2=CC(NC)=CC(C)=N2)OCC1)C3=NNC4=C3C=CC=C4]	87%				
COc1ccc(Oc2ccc([C@@H](C)N(C)c3ncc4c(N)nc(N)nc4n3)cc2)cc1 [MMV690102, COc1ccc(Oc2ccc(cc2)[C@@H](C)N(C)c3ncc4c(N)nc(N)nc4n3)cc1]	42%				
C[C@H](c1ccc2c(c1)CCCC2)N(C)c1ncc2c(N)nc(N)nc2n1 [MMV690103, C[C@@H](N(C)c1ncc2c(N)nc(N)nc2n1)c3ccc4CCCCc4c3]	26%				
CCc1ccc(C(NCc2nc(N)nc(N(C)C)n2)C(C)C)cc1 (stereo not drawn) [MMV1019989, CCc1ccc(cc1)C(NCc2nc(N)nc(n2)N(C)C)C(C)C]	92%				
O=C(Nc1nc(-c2ccccn2)cs1)C1CC1c1ccccc1F (stereo not drawn) [MMV1028806, Fc1ccccc1C2CC2C(=O)Nc3nc(cs3)c4ccccn4]	63%				
CNC(=O)CNc1nc(-c2ccccn2)nc2scc(-c3ccccc3)c12 [MMV1029203, CNC(=O)CNc1nc(nc2scc(c3ccccc3)c12)c4ccccn4]	98%				
CCNC(=O)C(C)Nc1nc(-c2cccnc2)nc2sc(C)c(C)c12 (stereo not drawn) [MMV1037162, CCNC(=O)C(C)Nc1nc(nc2sc(C)c(C)c12)c3cccnc3]	85%				
Cc1ccc(-c2nc(CN(Cc3ccccn3)C(C)C)cs2)o1 [MMV1088520, CC(C)N(Cc1ccccn1)Cc2csc(n2)c3oc(C)cc3]	72%				
COc1cccn2c(C(=O)N3CCCCC3)c(C(F)(F)F)nc12 [MMV1110498, FC(F)(F)C1=C(C(N2CCCCC2)=O)N(C=CC=C3OC)C3=N1]	99%				
Cc1cc(OCC(=O)Nc2ccc(C(C)C)cc2)n(C)c(=O)c1C#N [MMV1198433, CC(C)c1ccc(NC(=O)COC2=CC(=C(C#N)C(=O)N2C)C)cc1]	70%				
N=C(N)c1ccc(OCCCCCOc2ccc(C(=N)N)cc2)cc1 [Pentamidine, reference compound]					IC50 [2, 3]: 0.0031 µM
